According to patent US20230285292A1, “COMPOSITIONS AND METHODS OF USING A PLA2-RESPONSIVE DRUG DELIVERY SYSTEM” (THE TRUSTEES OF THE UNIVERSITY OF PENNSYLVANIA, priority 2020, published 2023):

Assays:
[1] = test system: load-induced OA knee joints; assay: Single load-induced PTOA model, histology and TUNEL; format: in vivo, mouse; settings: 6 N or 9 N loading, two weeks
Excerpt: To induce mouse OA that is noninvasive and mimics post-traumatic OA in human patients, male mice (2 months old) were subjected mechanic loading at the right knees and sham loading at left knees. Briefly, under anesthesia, the right tibiae were positioned with the knee downward in deep flexion between custom-made cups and subjected to axial compressive loads with a peak force of 6 or 9 Newtons (N) with a 0.5 N preload force to maintain the limb in position between loading cycles. Cyclic loads were applied for 0.34 s with a rise and fall time each of 0.17 s and a baseline hold time of 10 s between cycles for 60 cycles. The uninjured left knees were used as controls. […] For DMM surgical OA model, the first injection was performed immediately after surgery. Injections were then repeated every 2 weeks for 2 or 4 months. In total, there are 4 injections for the 2 months group and 8 injections for 4 months group. For load-induced OA model, injections (i.a.) were performed immediately and at 48 hours after loading. There are 2 injections in total for each mouse in this model. […] Cartilage injury length was measured in Safranin 0/Fast green stained paraffin sections. […] According to these histological changes, it is possible to identify the demarcation between the normal and injured cartilage tissue, and the length of the cartilage lesion range was measured. […]

[2] = Toxicity in mice after 2-month serial intra-articular injections; format: in vivo, mouse
Excerpt: After 2 months treatment for DMM mice, some major organs (kidney, liver, lung, heart, and spleen) and blood were collected. Tissue sections were stained with hematoxylin and eosin (H&E) to assess the effects of different treatment on mouse organ morphology.

[3] = test system: DMM-induced OA knee joints; assay: DMM surgery-induced OA model, histology and microCT; format: in vivo, mouse; settings: for morphology and structure of articular cartilage / cartilage degeneration: intra-articular injection once every two weeks starting immediately after DMM, 2 and 4 months
Excerpt: To induce mouse OA that mimics chronic OA in human patients, male mice at 3 months of age were subjected to DMM surgery at right knees and sham surgery at left knees. Briefly, in DMM surgery, the joint capsule was opened immediately after anesthesia and the medial meniscotibial ligament was cut to destabilize the meniscus without damaging other tissues. In Sham surgery, the joint capsule was opened in the same fashion but without any further damage. […] For DMM surgical OA model, the first injection was performed immediately after surgery. Injections were then repeated every 2 weeks for 2 or 4 months. In total, there are 4 injections for the 2 months group and 8 injections for 4 months group. For load-induced OA model, injections (i.a.) were performed immediately and at 48 hours after loading. There are 2 injections in total for each mouse in this model. After euthanasia, mouse knee joints were harvested and fixed in 4% paraformaldehyde overnight followed by decalcification in 0.5 M EDTA (pH 7.4) for 4 weeks prior to paraffin embedding. A serial of 6 μm-thick sagittal sections (about 100) were cut across the entire medial compartment of the joint until ACL junction. […] The final measurement is an average of these three sections. We defined uncalcified cartilage as the area from articular surface to the tide mark and calcified cartilage as the area from tide mark to cement line. The method to measure Mankin Score was described previously(37). Briefly, two sections within every consecutive six sections in the entire section set for each knee were stained with Safranin 0/Fast green and scored by two blinded observers. Each knee received a single score representing the maximal score of its sections. Synovitis score grading was carried out in 6-μm paraffin sections of sagittal mouse knee sections stained with H&E. The following basic morphological parameters of synovitis were included: (i) hyperplasia/enlargement of synovial lining layer, (ii) degree of inflammatory infiltration and (iii) activation of resident cells/synovial stroma, including fibroblasts, endothelial cells, histiocytes, macrophages, and multinucleated giant cells. All parameters are graded from 0 (absent), 1 (slight), 2 (moderate) to 3 (strong positive). The distal femur of mouse knee joints was scanned at a 6-μm isotropic voxel size with a microCT 35 scanner (Scanco Medical AG, Brüttisellen, Switzerland). All images were smoothened by a Gaussian filter (sigma=1.2, support=2.0). Measurement of SBP thickness was described previously(39). […] The region of interest (ROI) was circled and the average SBP thickness within ROI is calculated by average grey value/255*max scale bar value. […]

[4] = test system: DMM-induced OA knee joints; assay: DMM surgery-induced OA model, von Frey pain analysis; format: in vivo, mouse; settings: DMM knees; from 2 weeks post-surgery throughout experimental period
Excerpt: To induce mouse OA that mimics chronic OA in human patients, male mice at 3 months of age were subjected to DMM surgery at right knees and sham surgery at left knees. Briefly, in DMM surgery, the joint capsule was opened immediately after anesthesia and the medial meniscotibial ligament was cut to destabilize the meniscus without damaging other tissues. In Sham surgery, the joint capsule was opened in the same fashion but without any further damage. […] For DMM surgical OA model, the first injection was performed immediately after surgery. Injections were then repeated every 2 weeks for 2 or 4 months. In total, there are 4 injections for the 2 months group and 8 injections for 4 months group. For load-induced OA model, injections (i.a.) were performed immediately and at 48 hours after loading. There are 2 injections in total for each mouse in this model. The knee joint pain after DMM surgery or loading injury was evaluated in mice weekly before and after surgery using von Frey filaments as described previously(38). An individual mouse was placed on a wire-mesh platform (Excellent Technology Co.) under a 4×3×7 cm cage to restrict their move. […] The threshold force required to elicit withdrawal of the paw (median 50% withdrawal) was determined five times on each hind paw with sequential measurements separated by at least 5 minutes.

[5] = test system: load-induced OA knee joints; assay: Single load-induced PTOA model, von Frey pain analysis; format: in vivo, mouse; settings: 6 N or 9 N loading
Excerpt: To induce mouse OA that is noninvasive and mimics post-traumatic OA in human patients, male mice (2 months old) were subjected mechanic loading at the right knees and sham loading at left knees. Briefly, under anesthesia, the right tibiae were positioned with the knee downward in deep flexion between custom-made cups and subjected to axial compressive loads with a peak force of 6 or 9 Newtons (N) with a 0.5 N preload force to maintain the limb in position between loading cycles. Cyclic loads were applied for 0.34 s with a rise and fall time each of 0.17 s and a baseline hold time of 10 s between cycles for 60 cycles. The uninjured left knees were used as controls. […] For DMM surgical OA model, the first injection was performed immediately after surgery. Injections were then repeated every 2 weeks for 2 or 4 months. In total, there are 4 injections for the 2 months group and 8 injections for 4 months group. For load-induced OA model, injections (i.a.) were performed immediately and at 48 hours after loading. […] The knee joint pain after DMM surgery or loading injury was evaluated in mice weekly before and after surgery using von Frey filaments as described previously(38). […] The threshold force required to elicit withdrawal of the paw (median 50% withdrawal) was determined five times on each hind paw with sequential measurements separated by at least 5 minutes.

[6] = test system: chronic constriction of the sciatic nerve; settings: intrathecal, given 1 day after chronic constriction of the sciatic nerve, only under daily repeated dosing; cited from earlier work

Structure (SMILES) | length of cartilage injury [1] | synovitis scores [1] | blood parameters (hematology, renal and liver function, serum electrolytes) ([2]; 2-month serial injections) | histopathology of liver, spleen, kidney, lung, heart and knee joint ([2]; two months after serial intra-articular injections) | increase of SBP thickness at femoral medial site compared to sham joints ([3]; 4 months after DMM surgery) [fold] | increase in synovitis score compared with sham knees ([3]; DMM knees, 2-month treatment) | morphology and structure of articular cartilage / cartilage degeneration [3] | morphology and structure of articular cartilage / cartilage degeneration ([3]; listed as free sPLA2i) | mechanical threshold / OA pain (von Frey) [4] | pain threshold / OA pain (von Frey) [5] | behavioral sensitivity [6]
CCCCCCCCCCCCCCCCSCC(COP(=O)([O-])OCC[N+](C)(C)C)NC(=O)CCCCCCCCCCCCCCC (centres unmarked) [sPLA2i, 1-Palmitylthio-2-palmitoylamido-1,2-dideoxy-sn-glycero-3-phosphorylcholine] | significant damage areas | significant synovitis | no significant difference | did not observe any histopathological abnormalities | 1.31 | more than 10 fold | did not have a protective effect | not observed | did not alter the OA pain | experienced OA pain | –
CCCCC/C=C\C/C=C\C/C=C\C/C=C\CCCC(=O)C(F)(F)F [AACOCF3] | – | – | – | – | – | – | – | – | – | – | reduces behavioral sensitivity
